# Measurements from US20050054696A1, “Indole compounds and medicinal use thereof” (priority 2001, published 2005).
# Target: T1, recombinant human liver glycogen phosphorylase (HLGPa) (Homo sapiens, UniProt P06737)
# T1 construct: made in house; host or cells: Sf9 insect cells (unpurified cell lysate used as enzyme solution)
# T1 sequence (P06737 1-847): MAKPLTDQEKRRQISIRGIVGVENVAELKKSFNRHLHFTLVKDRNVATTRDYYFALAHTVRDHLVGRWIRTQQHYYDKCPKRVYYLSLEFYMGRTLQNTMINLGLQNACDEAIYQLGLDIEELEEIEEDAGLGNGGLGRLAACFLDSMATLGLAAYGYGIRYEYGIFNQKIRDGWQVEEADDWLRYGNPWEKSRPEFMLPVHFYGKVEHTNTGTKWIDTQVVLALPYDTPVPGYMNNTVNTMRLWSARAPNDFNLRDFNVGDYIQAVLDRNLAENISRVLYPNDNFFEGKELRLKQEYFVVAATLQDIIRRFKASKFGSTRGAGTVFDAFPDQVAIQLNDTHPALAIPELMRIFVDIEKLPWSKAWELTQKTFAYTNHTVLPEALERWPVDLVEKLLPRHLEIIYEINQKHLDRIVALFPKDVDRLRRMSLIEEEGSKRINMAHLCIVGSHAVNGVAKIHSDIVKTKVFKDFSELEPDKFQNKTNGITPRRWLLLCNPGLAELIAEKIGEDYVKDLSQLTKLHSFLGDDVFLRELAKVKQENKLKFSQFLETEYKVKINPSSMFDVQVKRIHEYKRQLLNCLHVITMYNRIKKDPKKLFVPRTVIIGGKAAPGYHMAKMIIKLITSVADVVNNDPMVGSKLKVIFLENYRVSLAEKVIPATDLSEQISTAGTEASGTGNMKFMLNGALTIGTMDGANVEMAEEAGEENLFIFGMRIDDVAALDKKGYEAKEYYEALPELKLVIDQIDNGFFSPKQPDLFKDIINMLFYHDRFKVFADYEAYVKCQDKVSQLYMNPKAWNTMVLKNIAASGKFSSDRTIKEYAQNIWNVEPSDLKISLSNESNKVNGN
# Assay: Measurement of liver glycogen phosphorylase activity (enzyme inhibitory activity against HLGPa)
# Type: biochemical
# Settings: Sf9 cell lysate expressing recombinant enzyme; reverse reaction (glycogen synthesis from G1-P), phosphate by malachite green, 60 min room temperature
# Procedure: Measurement Method of Liver Glycogen Phosphorylase Activity
# The measurement of the glycogen phosphorylase activity was performed by measuring the concentration of phosphoric acic produced by a reverse reaction, that is, a reaction wherein the glycogen phosphorylase synthesizes glycogen from G1-P. A cell lysate of Sf9 cells that forcibly expressed recombinant human liver glycogen phosphorylase was diluted to a protein amount of 80 μg/mL with 1 mM imidazole-hydrochloric acid buffer (pH 7.0, containing 0.2 mM PMSF, 250 mM NaCl, 0.025% BSA) and the dilute cell lysate was used as an enzyme solution of human liver glycogen phosphorylase. As a substrate solution, 25 mM Tris-HCl buffer (pH 7.2, containing 250 mM KCl, 6.25 mM MgCl2, 6.25 mM EGTA, 1.25 mM glucose-1-phosphate, 2.5 mg/ml glycogen, 7.5 mM glucose) was used. The test drug was dissolved in 0.5% dimethyl sulfoxide (DMSO). To a mixture of the test drug (10 μl) and the substrate solution (20 μl) was added an enzyme solution (20 μl) to start the enzyme reaction. As a control, 0.5% DMSO was added instead of the test drug. One free of addition of enzyme was used as a blank. The mixture was reacted at room temperature for 60 min, and a malachite green solution (50 μl) was added. The mixture was further reacted at room temperature for 20 min and absorbance at 650 nm was measured. An enzyme solution was added to the blank simultaneously with the malachite green solution and the measurement was done in the same manner. The percent inhibition (%) of the test drug was calculated from ((value of control−value of the test drug)/(value of control−value of blank))×100 (%).
row,IC50,SMILES
1,150 nM,"COC(=O)COc1ccccc1C(=O)NNC(=O)c1cc2cc(Cl)ccc2[nH]1 [Example 1-49, 2-(2-(2-(5-chloro-1H-indole-2-carbonyl)hydrazinocarbonyl)phenoxy)acetic acid methyl ester]"
2,27 nM,"O=C(O)COc1ccccc1C(=O)NNC(=O)c1cc2cc(Cl)ccc2[nH]1 [Example 1-50, 2-(2-(2-(5-chloro-1H-indole-2-carbonyl)hydrazinocarbonyl)phenoxy)acetic acid]"
3,89 nM,"CN(C)c1ccccc1C(=O)NNC(=O)c1cc2cc(Cl)ccc2[nH]1 [Example 1-51, 2-(dimethylamino)benzoic acid 2-(5-chloro-1H-indole-2-carbonyl)hydrazide]"
4,91 nM,"CN(C)C(=O)COc1ccccc1C(=O)NNC(=O)c1cc2cc(Cl)ccc2[nH]1 [Example 1-52, 2-(2-(5-chloro-1H-indole-2-carbonyl)hydrazinocarbonyl)phenoxy-N,N-dimethylacetamide]"
5,230 nM,"CNc1ccccc1C(=O)NNC(=O)c1cc2cc(Cl)ccc2[nH]1 [Example 1-53, 2-methylaminobenzoic acid 2-(5-chloro-1H-indole-2-carbonyl)hydrazide]"
6,30 nM,"Nc1cc(Cl)ccc1C(=O)NNC(=O)c1cc2cc(Cl)ccc2[nH]1 [Example 1-54, 2-amino-4-chlorobenzoic acid 2-(5-chloro-1H-indole-2-carbonyl)hydrazide]"
7,87 nM,"Nc1cccc(Cl)c1C(=O)NNC(=O)c1cc2cc(Cl)ccc2[nH]1 [Example 1-55, 2-amino-6-chlorobenzoic acid 2-(5-chloro-1H-indole-2-carbonyl)hydrazide]"
8,30 nM,"Nc1ccc(Cl)cc1C(=O)NNC(=O)c1cc2cc(Cl)ccc2[nH]1 [Example 1-57, 2-amino-5-chlorobenzoic acid 2-(5-chloro-1H-indole-2-carbonyl)hydrazide]"
9,> 100 nM,"N#Cc1ccc(C(=O)NNC(=O)c2cc3cc(Cl)ccc3[nH]2)cc1 [Example 1-58, 4-cyanobenzoic acid 2-(5-chloro-1H-indole-2-carbonyl)hydrazide]"
10,> 100 nM,"O=C(NNC(=O)c1cc2cc(Cl)ccc2[nH]1)c1ccc(-c2nnn[nH]2)cc1 [Example 1-59, 4-(1H-tetrazol-5-yl)benzoic acid 2-(5-chloro-1H-indole-2-carbonyl)hydrazide]"
11,> 100 nM,"O=C(NNC(=O)c1cc2cc(Cl)ccc2[nH]1)c1cccc(-c2nnn[nH]2)c1 [Example 1-60, 3-(1H-tetrazol-5-yl)benzoic acid 2-(5-chloro-1H-indole-2-carbonyl)hydrazide]"
12,49 nM,"O=C(O)CNc1ccccc1C(=O)NNC(=O)c1cc2cc(Cl)ccc2[nH]1 [Example 1-61, 2-(2-(2-(5-chloro-1H-indole-2-carbonyl)hydrazinocarbonyl)anilino)acetic acid]"
13,88 nM,"Cc1ccc2[nH]c(C(=O)NNC(=O)c3ccccc3N)cc2c1 [Example 1-62, 2-aminobenzoic acid 2-(5-methyl-1H-indole-2-carbonyl)hydrazide]"
14,28 nM,"Cc1ccc2[nH]c(C(=O)NNC(=O)c3ccc(F)cc3N)cc2c1 [Example 1-63, 2-amino-4-fluorobenzoic acid 2-(5-methyl-1H-indole-2-carbonyl)hydrazide]"
15,> 100 nM,"COC(=O)Nc1ccccc1C(=O)NNC(=O)c1cc2cc(C)ccc2[nH]1 [Example 1-64, methyl (2-(2-(5-methyl-1H-indole-2-carbonyl)hydrazinocarbonyl)phenyl)carbamate]"
16,> 100 nM,"CCc1ccc2[nH]c(C(=O)NNC(=O)c3ccccc3N)cc2c1 [Example 1-66, 2-aminobenzoic acid 2-(5-ethyl-1H-indole-2-carbonyl)hydrazide]"

row,IC50,SMILES
1,54 nM,"Cc1ccc2[nH]c(C(=O)NNC(=O)c3cc(F)c(F)cc3N)cc2c1 [Example 1-67, 2-Amino-4,5-difluorobenzoic acid 2-(5-methyl-1H-indole-2-carbonyl)hydrazide]"
2,160 nM,"O=C(NNC(=O)c1ccccc1OCCO)c1cc2cc(Cl)ccc2[nH]1 [Example 1-68, 2-(2-hydroxyethoxy)benzoic acid 2-(5-chloro-1H-indole-2-carbonyl)hydrazide]"
3,150 nM,"COC(=O)COc1cccc(C(=O)NNC(=O)c2cc3cc(Cl)ccc3[nH]2)c1 [Example 1-69, 2-(3-(2-(5-chloro-1H-indole-2-carbonyl)hydrazinocarbonyl)phenoxy)acetic acid methyl ester]"
4,150 nM,"O=C(O)COc1cccc(C(=O)NNC(=O)c2cc3cc(Cl)ccc3[nH]2)c1 [Example 1-70, 2-(3-(2-(5-chloro-1H-indole-2-carbonyl)hydrazinocarbonyl)phenoxy)acetic acid]"
5,62 nM,"CN(C)C(=O)COc1cccc(C(=O)NNC(=O)c2cc3cc(Cl)ccc3[nH]2)c1 [Example 1-71, 2-(3-(2-(5-chloro-1H-indole-2-carbonyl)hydrazinocarbonyl)phenoxy)-N,N-dimethylacetamide]"
6,> 100 nM,"Cc1nc(C(=O)NNC(=O)c2cc3cc(Cl)ccc3[nH]2)cs1 [Example 1-72, 2-methylthiazole-4-carboxylic acid 2-(5-chloro-1H-indole-2-carbonyl)hydrazide]"
7,76 nM,"O=C(NNC(=O)c1cc2cc(Cl)ccc2[nH]1)c1ccc(-c2ncn[nH]2)cc1 [Example 1-73, 4-(2H-[1,2,4]triazol-3-yl)benzoic acid 2-(5-chloro-1H-indole-2-carbonyl)hydrazide]"
8,250 nM,"O=C(Nc1ccccc1C(=O)NNC(=O)c1cc2cc(Cl)ccc2[nH]1)OC(CO)CO [Example 1-75, 1,3-dihydroxy-2-propyl (2-(2-(5-chloro-1H-indole-2-carbonyl)hydrazinocarbonyl)phenyl)carbamate]"
9,37 nM,"CC(C)(COC(=O)Nc1ccccc1C(=O)NNC(=O)c1cc2cc(Cl)ccc2[nH]1)C(=O)O [Example 1-76, 3-((2-(2-(5-chloro-1H-indole-2-carbonyl)hydrazinocarbonyl)phenyl)carbamoyloxy)-2,2-dimethylpropionic acid]"
10,18 nM,"O=C(NNC(=O)c1ccco1)c1cc2cc(Cl)ccc2[nH]1 [Example 1-78, furan-2-carboxylic acid 2-(5-chloro-1H-indole-2-carbonyl)hydrazide]"
11,83 nM,"O=C(NNC(=O)c1ccc(Cl)nc1Cl)c1cc2cc(Cl)ccc2[nH]1 [Example 1-79, 2,6-dichloronicotinic acid 2-(5-chloro-1H-indole-2-carbonyl)hydrazide]"
12,400 nM,"O=C(NNC(=O)c1cc2cc(Cl)ccc2[nH]1)c1ccc[nH]1 [Example 1-80, 1H-pyrrole-2-carboxylic acid 2-(5-chloro-1H-indole-2-carbonyl)hydrazide]"
13,360 nM,"O=C(NNC(=O)c1cc2cc(Cl)ccc2[nH]1)c1cnccn1 [Example 1-82, pyrazine-2-carboxylic acid 2-(5-chloro-1H-indole-2-carbonyl)hydrazide]"
14,880 nM,"O=C(NNC(=O)c1cc2cc(Cl)ccc2[nH]1)c1ccsc1 [Example 1-83, thiophene-3-carboxylic acid 2-(5-chloro-1H-indole-2-carbonyl)hydrazide]"
15,20 nM,"O=C(NNC(=O)c1cc2cc(Cl)ccc2[nH]1)c1ccoc1 [Example 1-84, furan-3-carboxylic acid 2-(5-chloro-1H-indole-2-carbonyl)hydrazide]"
16,430 nM,"O=C(NNC(=O)c1ccc(Cl)s1)c1cc2cc(Cl)ccc2[nH]1 [Example 1-85, 5-chlorothiophene-2-carboxylic acid 2-(5-chloro-1H-indole-2-carbonyl)hydrazide]"

row,SMILES,IC50
1,"CN(C)C(=O)Oc1ccccc1C(=O)NNC(=O)c1cc2cc(Cl)ccc2[nH]1 [Example 1-65, 2-(2-(5-chloro-1H-indole-2-carbonyl)hydrazinocarbonyl)phenyl dimethylcarbamate]",> 100 nM
